Test results published in ChEMBL document CHEMBL3861941, “Discovery of 4,6-disubstituted pyrimidines as potent inhibitors of the heat shock factor 1 (HSF1) stress pathway and CDK9” (Medchemcomm, 2016).

Experiments:
[1] = target: CDK9/cyclin T1 (Homo sapiens, UniProt P50750)
[2] = Cytotoxicity against human U2OS cells assessed as growth inhibition after 96 hrs by SRB assay; type: functional, cell-based
[3] = target: Cyclin-dependent kinase 2/cyclin E1 (Homo sapiens, UniProt P24941); test: Inhibition of recombinant full-length human C-terminal His6-tagged CDK2/recombinant full-length human N-terminal GST-tagged cyclin E using fluorescein-QSPKKG-CONH2 as substrate after 60 mins by off-chip mobility shift assay; type: protein-complex assay

CDK9/cyclin T1, sequence (O60563 whole entry): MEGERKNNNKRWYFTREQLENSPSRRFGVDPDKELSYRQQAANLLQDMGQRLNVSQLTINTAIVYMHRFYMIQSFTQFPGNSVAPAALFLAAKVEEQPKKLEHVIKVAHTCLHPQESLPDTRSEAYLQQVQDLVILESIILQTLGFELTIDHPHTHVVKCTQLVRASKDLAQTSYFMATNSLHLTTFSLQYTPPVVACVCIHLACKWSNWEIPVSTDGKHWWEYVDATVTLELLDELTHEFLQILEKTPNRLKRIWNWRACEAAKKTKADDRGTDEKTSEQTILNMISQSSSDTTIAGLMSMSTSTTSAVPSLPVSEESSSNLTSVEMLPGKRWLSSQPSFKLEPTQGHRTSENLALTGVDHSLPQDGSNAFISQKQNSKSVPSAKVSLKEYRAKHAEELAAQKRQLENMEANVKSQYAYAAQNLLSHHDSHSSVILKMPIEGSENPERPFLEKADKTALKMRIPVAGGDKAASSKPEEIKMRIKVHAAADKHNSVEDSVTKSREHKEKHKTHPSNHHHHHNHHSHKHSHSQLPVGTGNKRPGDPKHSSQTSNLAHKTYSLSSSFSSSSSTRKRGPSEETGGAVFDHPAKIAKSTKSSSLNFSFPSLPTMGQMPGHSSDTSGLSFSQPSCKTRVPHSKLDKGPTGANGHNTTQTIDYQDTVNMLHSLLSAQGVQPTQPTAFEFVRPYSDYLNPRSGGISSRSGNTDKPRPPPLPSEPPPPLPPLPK
CDK9/cyclin T1, sequence (P50750 whole entry): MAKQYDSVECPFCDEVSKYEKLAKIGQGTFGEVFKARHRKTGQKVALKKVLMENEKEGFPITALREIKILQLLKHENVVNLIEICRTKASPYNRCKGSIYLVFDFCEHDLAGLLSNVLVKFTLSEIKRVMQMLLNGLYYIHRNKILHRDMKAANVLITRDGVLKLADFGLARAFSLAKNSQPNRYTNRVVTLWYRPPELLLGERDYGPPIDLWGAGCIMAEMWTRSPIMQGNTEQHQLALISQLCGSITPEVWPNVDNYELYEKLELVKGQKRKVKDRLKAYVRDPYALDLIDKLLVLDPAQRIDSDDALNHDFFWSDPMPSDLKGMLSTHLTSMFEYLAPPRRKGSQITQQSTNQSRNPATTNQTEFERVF

SMILES	IC50 [1]	IC50 [2]	IC50 [3]
c1cnc2ncn(-c3cc(Nc4ccc(OCCN5CCCCC5)cn4)ncn3)c2c1	3 nM	5 nM	
Cc1c(Nc2ccc(OCCN(C)C)cn2)ncnc1-n1cnc2ccccc21			65800 nM
